Data set [1] is described as follows: Cassette pharmacokinetic test in mice (plasma, brain, CSF). The format is in vivo, male CD-1 mice. The procedure: The pharmacokinetic behaviors of the compounds of the present invention in mice were studied and the pharmacokinetic properties thereof were evaluated.
Data set [2] is described as follows: Accelerated stability test of solid. The format is physicochemical. The following applies: for Purity: HPLC area purity. From the text: Samples were respectively taken at 1 month, 2 months and 3 months to test the solid chemical purity (HPLC area purity) and crystal form.
Data set [3] is described as follows: Solid stability test, influence factors (high temperature, high humidity). The data set is classed as physicochemical. Here is the method: The sample placed under a high temperature condition was sealed and left to stand in a stability test chamber at 60° C. After 10 days, the sample was taken and tested for solid purity and crystal form. The sample placed under a high humidity condition was left to stand at room temperature and 92.5% RH humidity (the mouth of the sample bottle was wrapped with a layer of sealing film and 15˜20 small holes were evenly punched in the sealing film), and the samples were taken and tested for solid purity and crystal form after 5 days/10 days, respectively.

A short description of data set [4]: Pharmacokinetic test in mice. The format is in vivo. The following applies: mouse, plasma; PO (10 mL/kg [sic]) vs IV 3 mg/kg, male CD-1 mice; read-out: Bioavailability F %. The procedure:
The drug concentrations of the compounds in plasma at different time points were determined by LC/MS/MS method after single intravenous (IV) and intragastric (PO) administration of the compounds to 7-9 week old male CD-1 mice as the test animals. The pharmacokinetic behaviors of the compounds of the present invention in mice were studied and pharmacokinetic properties thereof were evaluated.
The compounds were prepared into clear solutions using 5% DMSO+10% solutol+85% water as a solvent for administration in IV (intravenous injection) and PO (gavage) groups. The administration dosage of each compound was 3 mg/kg for the IV group and […] for the PO group.

Setting [5] is: PO @ 3 mpk, cassette, brain, 2 h.
[6] abbreviates: mouse, plasma, 1 mg/kg, IV @ 1 mpk, cassette, male CD-1 mice, read-out: Apparent Distribution Volume Vd.
Setting [7] is: mouse, plasma, 1 mg/kg, IV @ 1 mpk, cassette, male CD-1 mice, read-out: Area under Curve AUC0-inf.
Setting [8] is: mouse, plasma, 1 mg/kg, IV @ 1 mpk, cassette, male CD-1 mice, read-out: Half-life T1/2 (converted).
Setting [9] is: mouse, plasma, 1 mg/kg, IV @ 1 mpk, cassette, male CD-1 mice, read-out: Initial Concentration C0.
Setting [10] is: mouse, plasma, 3 mg/kg, PO @ 3 mpk vs IV @ 1 mpk, cassette, male CD-1 mice, read-out: Bioavailability F %.
Where [11] appears, read: mouse, plasma, 3 mg/kg, PO @ 3 mpk, cassette, male CD-1 mice, read-out: Area under Curve AUC0-inf.
[12] abbreviates: mouse, plasma, 3 mg/kg, PO @ 3 mpk, cassette, male CD-1 mice, read-out: Peak Concentration Cmax.
The mark [13] stands for this setting: mouse, plasma, 3 mg/kg, PO @ 3 mpk, cassette, male CD-1 mice, read-out: Time to Peak Tmax.
Where [14] appears, read: male, CD-1, mouse, in vivo, iv, 1 mg/kg.
Setting [15] is: male, CD-1, mouse, in vivo, po, 3 mg/kg.
Setting [16] is: Room temperature/92.5% RH, 5 days.
The mark [17] stands for this setting: Room temperature/92.5% RH, 10 days.

The structures appear in SMILES notation. Read-outs that look alike come from different tables or passages of the source.

Regarding `C[C@H]1CNC(=O)c2cnn3ccc(nc23)N[C@H](C)c2cc(F)ccc2O1` [TPX-0005], the “Drug Concentration in Cerebrospinal Fluid at 0.5 h” value in data set [1] (PO @ 3 mpk, cassette, CSF) came out at 8 nmol/kg. Further, the “Drug Concentration in Brain at 0.5 h” value in data set [1] (PO @ 3 mpk, cassette, brain) is on record as 50 nmol/kg. Further, in data set [1] (setting [5]), the “Drug Concentration in Brain at 2 h” value was 41 nmol/kg. Also, the Vd in data set [1] (setting [6]) was determined as 2.63 L/kg. Moreover, the AUC(0-inf) turned out to be 2.86 µM·h in data set [1] (setting [7]) and 5.49 µM·h in data set [1] (setting [11]). Further, the half-life in data set [1] (setting [8]) was 221 min. Also, the C0 in data set [1] (setting [9]) came to 2250 nM. The bioavailability in data set [1] (setting [10]) came to 64%. The Cmax in data set [1] (setting [12]) amounted to 1540 nM. The Tmax in data set [1] (setting [13]) amounted to 45 min.
In data set [1] (setting [14]), `CN1CCN(c2ccc(C(=O)Nc3n[nH]c4ccc(Cc5cc(F)cc(F)c5)cc34)c(NC3CCOCC3)c2)CC1` [RXDX-101, Entrectinib] had an AUC(0-inf) of 3.77 µM·h, a C0 of 2810 nM, a Vd of 1.24 L/kg and a half-life of 116 min. Besides, in data set [1] (setting [15]), the AUC(0-inf) stood at 3.26 µM·h, the Cmax stood at 586 nM, the Tmax was found to be 45 min and the bioavailability was found to be 23%. In data set [1] (male, CD-1, mouse, in vivo, po, 3 mg/kg, 2 h), the “Drug Concentration in Brain at 2 h” value is 30 nmol/kg.
With `O=C1NC2(CC2)COc2ncc(F)cc2[C@H]2CCON2c2ccn3ncc1c3n2`, the “Relative Purity*” value is listed as 100.0 in data set [2] (40° C./75% RH, 1 month); 100.0 in data set [2] (40° C./75% RH, 2 months); 100.0 in data set [2] (40° C./75% RH, 3 months); 99.9 in data set [2] (60° C./75% RH, 1 month); 100.0 in data set [2] (60° C./75% RH, 2 months); 100.0 in data set [2] (60° C./75% RH, 3 months). Besides, the Purity is recorded as 100.0 in data set [2] (40° C./75% RH, 1 month); 100.0 in data set [2] (40° C./75% RH, 2 months); 100.0 in data set [2] (40° C./75% RH, 3 months); 99.9 in data set [2] (60° C./75% RH, 1 month); 100.0 in data set [2] (60° C./75% RH, 2 months); 100.0 in data set [2] (60° C./75% RH, 3 months). The “Test Results Purity” value was 100.0% in data set [3] (60° C, sealed, 10 days); 100.0% in data set [3] (setting [16]); 100.0% in data set [3] (setting [17]). For the same compound, the “Test Results Crystal Form” value in data set [3] (60° C, sealed, 10 days, XRPD) is “Crystal Form C”; in data set [3] (setting [16]) it was “Crystal Form C”; in data set [3] (setting [17]), “Crystal Form C”. For the same compound, the “Test Results Relative Purity*” value in data set [3] (60° C, sealed, 10 days, purity of stability sample/purity of starting sample x100%) stood at 100.0%; in data set [3] (setting [16]), 100.0%; in data set [3] (setting [17]), 100.0%.
On to `C[C@@H]1CCc2ncc(F)cc2[C@H]2CCCN2c2ccn3ncc(c3n2)C(=O)N1` [LOXO-195, reference compound], for which, in data set [4], the bioavailability is 74%.
`O=C(Nc1cnn2ccc(N3CCC[C@@H]3c3cc(F)ccc3F)nc12)N1CC[C@H](O)C1` [LOXO-101, Larotrectinib]: the “Drug Concentration in Cerebrospinal Fluid at 0.5 h” value in data set [1] (PO @ 3 mpk, cassette, CSF) came out at 15 nmol/kg. In addition, the “Drug Concentration in Cerebrospinal Fluid at 2 h” value in data set [1] (PO @ 3 mpk, cassette, CSF, 2 h) is reported as 3 nmol/kg. In addition, the “Drug Concentration in Brain at 0.5 h” value in data set [1] (PO @ 3 mpk, cassette, brain) stood at 40 nmol/kg. Besides, the “Drug Concentration in Brain at 2 h” value in data set [1] (setting [5]) stood at 20 nmol/kg. For the same compound, in data set [1] (setting [6]), the Vd worked out at 1.57 L/kg. The AUC(0-inf) in data set [1] (setting [7]) was 1.72 µM·h; in data set [1] (setting [11]), 2.72 µM·h. For the same compound, the half-life in data set [1] (setting [8]) was 72.6 min. The C0 in data set [1] (setting [9]) came out at 2380 nM. Moreover, the bioavailability in data set [1] (setting [10]) was 51%; in data set [4], 28%. Also, the Cmax in data set [1] (setting [12]) came to 1350 nM. Further, the Tmax in data set [1] (setting [13]) was found to be 30 min.

A word on the bioavailability: it is the share of a dose that reaches the circulation, judged against a reference dose that is usually intravenous. In general, Tmax refers to the time at which the peak concentration occurs.

These data come from patent US20220289765A1, “CRYSTAL OF CARCINOGENIC FUSED KINASE INHIBITOR AND APPLICATIONS THEREOF” (Simcere Pharmaceutical Co., Ltd., priority 2019, published 2022).
